In patent publication US9765061B2, “Trail enhancers for the selective killing of cancer cells” (The Scripps Research Institute, priority 2013, dated 2017):

Tests used:
MCF7 cells = assay: PARP cleavage in breast cancer MCF7 cells (Vector, Bcl-2, CLARP); format: cell-based, human; conditions: control MCF7, MCF7/Bcl-2 and MCF7/CLARP, FIG. 3B
Procedure: (§1) FIG. 3: Sensitivity of cancerous and non-cancerous cells to apoptosis induced by TNF, C12 or a combination of C12 and TNF. Cells were incubated with TNF, (C12) or a combination of TNF and (C12) as indicated, and the cleavage of PARP (an apoptotic marker) was determined by Western blot. (A and B) Breast cancer MCF-7 cells transfected with control vector (Vector) and vector expressing Bcl-2 or CLARP. (C) HeLa cell line. (D) Normal human bronchial epithelial cells (NHBE).
To further test this hypothesis, we compared sensitivity of breast cancer cell line MCF7 to apoptosis induced by TNF, C12 or their combination. In these experiments we used a control variant of MCF7 (Vector) as well as MCF7 cells stably expressing negative regulators of apoptosis, such as Bcl-2 and CLARP; Bcl-2 is an inhibitor of the intrinsic apoptotic pathway, whereas CLARP inhibits receptor-dependent apoptotic signaling, also called the extrinsic apoptotic pathway. The cells were incubated with TNF, C12 or their combination, and protein extracts were analyzed by Western blot for the cleavage of PARP, a biochemical marker indicative of apoptosis ^26.
Antibodies and Western blot analysis. Anti-eIF2α, phospho-eIF2α[…](p-eIF2α), p38, p-p38 (Thr180/Tyr132), p-RelA (Ser536), p-I κB ? […] Cellular extracts were prepared and analyzed by Western blot assay as previously described.^E3

HeLa cell line = assay: PARP cleavage in HeLa cells; format: cell-based, human; conditions: FIG. 3C
Procedure: as §1
Similar experiments were conducted by using normal human bronchial epithelial cells and HeLa cell line as an example of transformed cells. We observed that both HeLa and normal cells were resistant to pro-apoptotic effects of TNF (FIG. 3C and 3D). […] In addition, two stimuli—C12 and TNF—work synergistically against cancerous cells, although normal cells stay intact.
Antibodies and Western blot analysis. Anti-eIF2α, phospho-eIF2α[…](p-eIF2α), p38, p-p38 (Thr180/Tyr132), p-RelA (Ser536), p-I κB ? 32/36), PARP 20 antibodies were purchased from Cell Signaling; anti-RelA, I κB α, IκBβ were from Santa Cruz Biotechnology. Cellular extracts were prepared and analyzed by Western blot assay as previously described.^E3

[1] = tested on: primary human hepatocytes; assay: Viability and apoptosis of primary human hepatocytes from normal donors; format: cell-based; conditions: hepatocytes from normal donors
Procedure: FIG. 8: Safety and pro-apoptotic. activity of (C12). Cells were incubated with TRAIL, (C12), […] (Bor) or a combination of TRAIL and (C12) or Bor as indicated, and cell viability (top panels) or the cleavage of PARP (bottom panels) was determined. (A) Lung cancer cell line A549. (B) Primary human hepatocytes from normal donor.
Therefore, to assess a potential utility of C12 for anti-cancer therapy, we compared the effects of these two compounds—(C12) and bartezomid (Bor)—on TRAIL-mediated apoptosis in cancerous A549 cells and primary human hepatocytes.
Cancer and normal cell culture. Lung cancer cell line A549 and colon cancer cell line HT29 were purchased from ATCC. Breast cancer cell line MDA-MB-468 was received from J. C. Reed (The Burnham Institute, La Jolla, Calif.). Cell lines were maintained in growth medium (GM): DMEM medium (4.5 g/l glucose) supplemented with 10% FBS (HyClone, Logan, Utah), L-glutamine, penicillin/streptomycin and nonessential ammo acids (Invitrogen, Carlsbad, Calif.). Normal human bronchial epithelial (NHBE) cells and normal human mammary epithelial (NHME) cells were obtained from Cambrex (East Rutherford, N.J.) and cultured as recommended by the manufacturer. Normal human colon smooth muscle cells were obtained from ScienCell Research Lab (San Diego, Calif.) and cultured as recommended by the manufacturer. Primary cultures of human hepatocytes (freshly plated; not cryopreserved) and culture medium were obtained from Celsis In Vitro Technologies (Baltimore, Md.). Upon receipt of the cells, the medium was gently aspirated from each well and replenished with InVitroGRO HI medium supplemented with Torpedo Antibiotic Mix (Celsis), and the plates were kept in a 5% CO2, at 37° C. in an incubator at saturating humidity. After 2-4 h, cells were stimulated as described in the text and FIG. legends.
(§2) Cytotoxicity was determined by using the XTT-based toxicology assay kit (Sigma, St. Louis, Miss.) in accordance with the manufacturer's instructions. For some experiments, to confirm the apoptotic nature of toxicity, cells were analyzed using protocols and instructions of the Annexin V-FITC apoptosis detection kit (Biovision, Mountain View, Calif.). In addition, caspase 3, 8 and 9 activities were determined by colorimetric assays (R&D System), and the data are expressed as fold increases compared to the values of untreated or control-treated cells (n=5).

A549 cell line = assay: Viability of A549 cells, XTT-based assay, with or without TRAIL; format: cell-based, human
Procedure: FIG. 4: C12 sensitizes long cancer cell line A549 to TRAIL. (A) Viability of cells was examined after 24-hour incubation in media containing TRAIL (50 ng/ml), compound (C12) (1 μM), compound (C12R) (25 μM) or the indicated combination of TRAIL (T) with (C12) or (C12R). The chemical structures of (C12) and its stereoisomer (C12R) are shown on the right. (B) Viability of cells was examined after 24-hour incubation in media, containing TRAIL (50 ng/ml) and the indicated doses of C12. Viable cells remaining after the treatment were determined as a function of mitochondrial activity of living cells according to XTT-based toxicology assay kit (Sigma) and are shown as a percentage of viable untreated cells.
To test this hypothesis, we examined the effect of C12 in vitro on the activity of TRAIL against A549 cell line derived from a cancer sample of the human lung.
as §2

CCCCCCCCCC(=O)CC(=O)N[C@H]1CCOC1=O [Compound 1, N-(3-oxo-dodecanoyl) homoserine lactone] was tested, and the “sensitivity to apoptosis (PARP cleavage), compound alone” value (MCF7 cells) was “showed sensitivity”, the “cleavage of PARP, compound alone” value (HeLa cell line) was “induced the cleavage of PARP” and the “toxicity to human hepatocytes, compound alone or in combination with TRAIL” value [1] was “practically healthy and intact”. The “cell growth and viability, compound alone” value (A549 cell line; C12 1 μM or 25 μM, C12R 25 μM, no TRAIL) was “practically unchanged”, the “sensitivity of A549 cells to TRAIL in the presence of compound” value (A549 cell line; FIG. 8A) was “comparable increase in sensitivity” and the cytotoxicity at 0.1 µM (A549 cell line; Homo sapiens, A549, 100 nM of C12 and 50 ng/ml of TRAIL, 24-hours incubation, read-out: cells that lost their viability) was > 50%. The “viability of A549 cells” value (A549 cell line; combination of TRAIL (50 ng/ml) and C12 (1 μM)) was “dramatically reduced”.
